What was measured:
[1] = system: phospho-S6 (Ser235/236) in tumor tissue; assay: Phospho-S6 immunohistochemistry in paired tumor biopsies; format: in vivo, human
[2] = system: phospho-AKT (Serine 473) in tumor tissue; assay: Phospho-AKT immunohistochemistry in paired tumor biopsies; format: in vivo, human
tumor 18F-FDG uptake = assay: Whole body 18F-FDG-PET; format: in vivo, human
advanced solid tumors = assay: Antitumor activity; format: in vivo, human
PI3K signaling = assay: Multimodal pharmacodynamic assessment; format: in vivo, human; conditions: regardless of molecular genetic status
[3] = system: purified recombinant human PI3K p110α; conditions: read-out: IC50 p110α; purified recombinant human PI3K isoforms; cited from earlier work
plasma insulin = conditions: 330mg, cycle 1 day 1, 1 hour from baseline
plasma glucose = conditions: 330mg, cycle 1 day 1, 1 hour from baseline
[4] = system: purified recombinant human PI3K p110δ; conditions: read-out: IC50 p110δ; purified recombinant human PI3K isoforms; cited from earlier work
mTOR = conditions: cited from earlier work
[5] = system: U87MG glioblastoma xenografts; conditions: oral dose of 150mg/kg; U87MG glioblastoma xenograft; cited from earlier work
[6] = cited from earlier work
[7] = system: purified recombinant human PI3K p110γ; conditions: read-out: IC50 p110γ; purified recombinant human PI3K isoforms; cited from earlier work
[8] = patient with cKIT exon 9 mutant gastrointestinal stromal tumor, 450mg once-daily
[9] = platinum-refractory ovarian cancer patient, 100mg once-daily 21/28
[10] = 9 patients with PI3K pathway alterations
[11] = patient with BRAF V600E-mutated metastatic melanoma, 330mg once-daily 21/28

CS(=O)(=O)N1CCN(Cc2cc3nc(-c4cccc5[nH]ncc45)nc(N4CCOCC4)c3s2)CC1 [pictilisib, 2-(1H-indazol-4-yl)-6-(4-methanesulfonyl-piperazin-1-ylmethyl)-4-morpholin-4-yl-t hieno[3,2-d]pyrimidine]
Reduction in tumor phospho-S6 expression [1, 8]: 75% | Reduction in tumor phospho-S6 expression [1, 9]: 56% | Decrease in AKT phosphorylation in tumor biopsies ([2]; AUC >20uM.hr on day 15, 2 of 3 patients): 100% | Suppression of phosphorylated serine-473 AKT in tumor ([2]; doses associated with AUC >20uM.hr): > 90% | Patients with metabolic partial response by EORTC-PET criteria (tumor 18F-FDG uptake; 32 evaluable patients): 22% | Patients with metabolic partial response by EORTC-PET criteria (>25% reduction in mean SUVmax) (tumor 18F-FDG uptake; 32 evaluable patients): 7 of 32 and Seven of 32 | Overall median change in SUVmax (tumor 18F-FDG uptake; all evaluable patients): −13% | Range of change in SUVmax (tumor 18F-FDG uptake; all evaluable patients): −47 to 22% | Dose levels showing reduction from baseline of 18F-FDG-tracer uptake (tumor 18F-FDG uptake; in vivo): ≥ 45 mg | Reduction in SUVmax on 18F-FDG-PET (tumor 18F-FDG uptake; [8]): 47% | Reduction in mean SUVmax in subcapsular liver metastases (tumor 18F-FDG uptake; [9]): 30% | Patients with RECIST-based response (advanced solid tumors; [10]): none | Patients with response by GCIG-CA125 criteria (advanced solid tumors; [10]): 1 | Response by RECIST (advanced solid tumors; [11]): partial response | Time on pictilisib (advanced solid tumors; [11]): 9.5 months | Duration of stable disease (advanced solid tumors; [8]): 7.5 months | Duration of radiological stable disease (RECIST) (advanced solid tumors; [9]): 4 months | Serum CA125 after treatment (advanced solid tumors; platinum-refractory ovarian cancer patient, decrease from 1214 U/ml): 400 U/ml | Dose levels with on-target pharmacodynamic activity (PI3K signaling): ≥ 100 mg | IC50 [3]: 3 nM | Mean fold-change (post- over pre-treatment) in plasma insulin (plasma insulin): 3.58 (95%CI: 2.33-5.49) | Mean fold-change (post- over pre-treatment) in plasma glucose (plasma glucose): 1.18 (95%CI: 1.10-1.26) | IC50 [4]: 3 nM | fold less activity against mTOR compared to p110α (mTOR): 193 fold | growth inhibition [5]: 98% | Central nervous system (CNS) penetration compared with BKM120 [6]: lower | IC50 [7]: 75 nM

From publication PMC4287394 (Clinical cancer research : an official journal of the …, 2014)
